Reference: patent publication USRE49873E1, “APP specific bace inhibitors (ASBIs) and uses thereof” (BUCK INSTITUTE FOR RESEARCH ON AGING, priority 2012, dated 2024)

Legend:
MBP-C125 APP = MBP-C125 APP (Homo sapiens, UniProt P05067); assay: Nitrocellulose filter ligand-binding (ligand blot) assay; settings: qualitative; UV and MALDI detection
Description: To explore the interaction of ASBIs with APP a ligand blot technique was used, where MBP-C125 APP was dot blotted on a nitrocellulose blot and binding to the protein was detected upon treatment with the bioflavonoids. A nitrocellulose filter-binding assay with bovine serum albumin (BSA) was used as a control. The binding of bioflavonoids was determined using both UV and MALDI mass spectrometric analysis.

autophagy = settings: Wen et al. (2012); cited from earlier work
[1] = biological target: T1, BACE cleavage of the MBP-C125 APP substrate (Homo sapiens, UniProt P05067); assay: ASBI assay a): BACE cleavage of MBP-C125 substrate (C99 by AlphaLISA); assay type: biochemical
T1 construct: purchased Sigma (methods); R&D (HTS description) B9059; 931-AS-050
T1 sequence (P05067 646-770 limits assumed): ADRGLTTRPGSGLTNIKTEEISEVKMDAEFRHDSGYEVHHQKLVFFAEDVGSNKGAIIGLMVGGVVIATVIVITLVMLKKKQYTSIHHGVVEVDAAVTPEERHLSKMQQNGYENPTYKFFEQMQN
Description: As illustrated in the Examples, in one embodiment, an MBP-C125 APP695 wt fusion protein can be used as one of the substrates. The second substrate can be the commercially available P5-P5′ fluorescence substrate. Each of these substrates is incubated with recombinant BACE (R&D (cat#931-AS-050) in, for example, a 96 well plate format. For the MBP-C125 substrate the C-99 product from the BACE cleavage can be measured using an AlphaLisa assay as a readout. For the P5-5′ substrate the […] upon BACE cleavage can be used as the readout. An ASBI would inhibit the BACE cleavage of the MBP-C125 substrate while not being inhibitory of the fluorescence substrate.
A protein construct of Maltose-Binding-Protein carrying the 125 C-terminal residues of APP (1 uL of 1 mM in water) was incubated with a flavonoid (100 uM) for 15 minutes. The mix was then submitted to cleavage by BACE (Sigma #B9059, 5 μl of 3 unit/ml in BACE buffer) for 30 minutes. After 0, 10, 20 and 30 minutes, 2 uL the reaction mixture were frozen and the different time points were quantified simultaneously for the amount of APP-C99 created. The quantification was done by using a Perkin Elmer ALPHALisa Amyloid Amyloid Beta kit (AL275C) modified by replacing the anti-Abeta acceptor beads (AL275AC) with anti-APP acceptor beads (AL275AC) and making the antibody mix with 2×ALPHALisa buffer. […]

[2] = system: β-CTF production in CHO cells stably over-expressing human APP; assay: β-CTF western blot in CHO cells over-expressing human APP; assay type: cell-based, Chinese Hamster; settings: 10 μM, 24 hr, western blot of cell lysates
Description: Chinese Hamster Ovary (CHO) cells stably over-expressing human APP were treated with 10 μM Galangin or DMSO for 24 hr, then the cell lysates and conditioned media were collected. The levels of full length APP and β-CTF in the cell lysates and the levels of sAPPα in the conditioned media were detected by western blot. […] BACE1-dependent cleavage of SEAP-NRG1-β1 was evaluated by SEAP assays with supernatants of control human embryonic kidney 293 (HEK293) cells (SEAP-NRG1-β1) or HEK293 cells co-expressing BACE1 (SEAP-NRG1-β1+BACE1), treated with DMSO or Galangin (10 μM). An increase in shedding of the SEAP-NRG1-b1 fusion protein was measured upon BACE1 co-expression. Shedding in co-expressing cells was not suppressed by Galangin. Error bars indicate SEM. (N.S., p>0.05; n=4, student t test).
The Chinese Hamster Ovary (CHO) cell line over-expressing human AβPP (7 W) was kindly provided by Dr. Edward Koo. Plasmid constructs were transiently transfected into HEK293T or 7 W cells with Lipofectamine 2000 (Invitrogen). Western Blot analysis was performed as previously described (Swistowski et al. (2009) J. Neurosci., 29: 15703-15712). Briefly, 48 hr after transfection, cells were harvested and lysed in NP-40 Cell Lysis Buffer (50 mM TrisHCl, pH 8.0, 150 mM NaCl and 1% NP-40). Cell lysates were mixed with 1×LDS loading buffer (Invitrogen) and 50 mM DTT, and boiled at 100° C. for 10 min. […]

[3] = biological target: acetylcholine esterase (AChE) (Homo sapiens, UniProt P22303); settings: Guo et al. (2010); cited from earlier work
Sequence of acetylcholine esterase (AChE) (P22303 32-614): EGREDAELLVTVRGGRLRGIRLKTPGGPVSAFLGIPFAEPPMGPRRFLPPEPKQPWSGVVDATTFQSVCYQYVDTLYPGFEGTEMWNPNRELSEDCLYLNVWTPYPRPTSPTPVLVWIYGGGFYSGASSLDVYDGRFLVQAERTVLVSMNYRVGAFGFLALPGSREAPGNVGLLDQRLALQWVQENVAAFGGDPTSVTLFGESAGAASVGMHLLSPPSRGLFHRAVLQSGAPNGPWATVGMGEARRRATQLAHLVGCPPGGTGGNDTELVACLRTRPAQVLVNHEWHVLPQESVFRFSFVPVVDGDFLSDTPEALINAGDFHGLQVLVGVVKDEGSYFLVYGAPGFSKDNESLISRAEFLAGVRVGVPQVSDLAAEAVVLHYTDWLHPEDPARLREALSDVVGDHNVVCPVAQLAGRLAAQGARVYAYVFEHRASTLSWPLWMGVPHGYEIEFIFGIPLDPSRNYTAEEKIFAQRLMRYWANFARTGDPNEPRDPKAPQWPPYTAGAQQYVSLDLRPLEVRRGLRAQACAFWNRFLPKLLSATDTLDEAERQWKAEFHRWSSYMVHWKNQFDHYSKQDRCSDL

[4] = system: sAPPβ production by SH-SY5Y cells; assay: sAPPβ AlphaLisa in SH-SY5Y neuroblastoma cells; assay type: cell-based
Description: APP is processed through two major pathways: the non-amyloidogenic pathway involves α-secretase cleavage, proteolyzing APP into sAPPα and α-CTF (C83), while the amyloidogenic pathway starts with β-secretase cleavage, cleaving APP into sAPPβ and β-CTF (C99). The β-CTF is then cleaved by the γ-secretase, which produces Aβ and AICD. The ability of the ASBIs to inhibit the β-secretase processing of APP was tested in SH-SY5Y neuroblastoma cells that express APP. The sAPPβ fragment formed from the BACE cleavage product was measured using an AlphaLisa assay from Perkin-Elmer (Cat# A2132). […] Testing of a panel of bioflavonoids led to the identification of galangin as an ASBI.

Sequence of MBP-C125 APP (P05067 646-770 limits assumed): as the sequence (P05067 646-770 limits assumed) above

O=c1c(O)c(-c2ccccc2)oc2cc(O)cc(O)c12 [Galangin]
binding to the APP substrate (MBP-C125 APP): shows binding to the APP substrate | induction of autophagy (autophagy): induce autophagy | inhibition of BACE cleavage of the MBP-C125 substrate ([1]; HTS at 10 uM, flavonoid panel at 100 uM): inhibiting the cleavage of the MBP substrate by BACE | dose at which effective as an ASBI ([1]; in the ASBI assays): 50 µM | β-CTF production [2]: inhibits β-CTF production | inhibitor of acetylcholine esterase (AChE) [3]: inhibitor of acetylcholine esterase (AChE) | APP levels [4]: No effect on APP levels was detected | sAPPβ levels ([4]; 50 μM): decreased sAPPβ levels
